{"source": "paper PMC7587396", "about": "“New Zileuton-Hydroxycinnamic Acid Hybrids: Synthesis and Structure-Activity Relationship towards 5-Lipoxygenase Inhibition” (Molecules, 2020)", "origin": "cited, not measured here", "target": "T1, 5-LO (Homo sapiens, UniProt P09917)", "T1 sequence (P09917 1-674)": "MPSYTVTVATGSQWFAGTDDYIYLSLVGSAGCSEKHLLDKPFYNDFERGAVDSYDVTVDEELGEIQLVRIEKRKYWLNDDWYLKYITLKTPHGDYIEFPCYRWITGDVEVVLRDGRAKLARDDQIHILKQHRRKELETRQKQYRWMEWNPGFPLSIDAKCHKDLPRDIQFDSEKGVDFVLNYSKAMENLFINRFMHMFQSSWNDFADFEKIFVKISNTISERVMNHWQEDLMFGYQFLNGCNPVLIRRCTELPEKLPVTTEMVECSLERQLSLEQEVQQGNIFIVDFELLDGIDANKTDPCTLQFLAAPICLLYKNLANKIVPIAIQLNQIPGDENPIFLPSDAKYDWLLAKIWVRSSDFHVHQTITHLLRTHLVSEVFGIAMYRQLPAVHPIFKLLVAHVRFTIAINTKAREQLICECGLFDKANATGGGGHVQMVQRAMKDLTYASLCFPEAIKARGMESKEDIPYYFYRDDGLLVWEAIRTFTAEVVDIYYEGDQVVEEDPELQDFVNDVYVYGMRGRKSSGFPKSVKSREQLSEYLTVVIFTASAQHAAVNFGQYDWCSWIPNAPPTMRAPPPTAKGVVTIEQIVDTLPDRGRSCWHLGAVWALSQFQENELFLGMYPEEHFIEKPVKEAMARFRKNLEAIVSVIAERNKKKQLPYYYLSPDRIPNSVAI", "set-up": "5-LO is highly expressed in PMNL; endogenous in cells; host or cells: human PMNL from peripheral blood of healthy volunteers", "conditions": "read-out: IC50, inhibition of LTs biosynthesis in human PMNL; cited from earlier work", "data": [{"smiles": "O=C(/C=C/c1ccc(O)c(O)c1)OCCc1ccccc1", "note": "[CAPE, caffeic acid phenethyl ester]", "values": [{"measurement": "IC50", "result": 0.52, "unit": "µM"}]}]}
